Experimental data from patent US7713937B2, “Synthetic peptide amides and dimeric forms thereof” (Cara Therapeutics, Inc., priority 2006, dated 2010).
Square brackets hold non-standard residues; d marks the D form. Side chains are listed from the residue outwards. Peptide text beside a SMILES is read from it. * marks the point of attachment. Piperidinyl(4-(1-Pro-OH)) = O=C(O)[C@@H]1CCCN1C1CCN(*)CC1; Homopiperazine(4-amidino) = N=C(N)N1CCCN(*)CC1; d(hArg) = N=C(N)NCCCC[C@@H](N)C(=O)O; dAgb = N=C(N)NCC[C@@H](N)C(=O)O; Homopiperazinyl = C1CNCCN(*)C1; dAgp = N=C(N)NC[C@@H](N)C(=O)O; dNle = CCCC[C@@H](N)C(=O)O; dOrn = NCCC[C@@H](N)C(=O)O; dDab = NCC[C@@H](N)C(=O)O; Inp = O=C(O)C1CCNCC1

Key:
[1] = molecular target: T1, mouse kappa opioid receptor (mKOR) (Mus musculus, UniProt P33534); test: cell-based; settings: for Emax: read-out: mKOR Efficacy(%)
T1 construct: Stimulation of Endogenous Mouse Kappa-Opioid Receptor in R1.G1 Cells; host or cells: R1.G1 mouse thymoma cells
T1 sequence (P33534 whole entry): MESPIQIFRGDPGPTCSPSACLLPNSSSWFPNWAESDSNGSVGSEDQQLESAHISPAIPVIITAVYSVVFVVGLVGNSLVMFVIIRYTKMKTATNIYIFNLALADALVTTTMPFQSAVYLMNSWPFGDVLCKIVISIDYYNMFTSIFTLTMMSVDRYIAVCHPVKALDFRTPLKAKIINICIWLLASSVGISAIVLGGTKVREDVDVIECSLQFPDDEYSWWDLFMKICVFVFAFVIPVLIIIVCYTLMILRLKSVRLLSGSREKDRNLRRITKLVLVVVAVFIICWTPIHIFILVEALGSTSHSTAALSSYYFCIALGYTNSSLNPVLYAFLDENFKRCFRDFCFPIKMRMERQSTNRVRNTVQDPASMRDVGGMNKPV

[2] = molecular target: T2, human kappa opioid receptor (hKOR) (Homo sapiens, UniProt P41145); test: cell-based; settings: for Emax: HEK293, read-out: hKOR Efficacy(%)
T2 construct: expressed in transfected cells; host or cells: HEK-293 cells, transient transfection with Fugene6
T2 sequence (P41145 whole entry): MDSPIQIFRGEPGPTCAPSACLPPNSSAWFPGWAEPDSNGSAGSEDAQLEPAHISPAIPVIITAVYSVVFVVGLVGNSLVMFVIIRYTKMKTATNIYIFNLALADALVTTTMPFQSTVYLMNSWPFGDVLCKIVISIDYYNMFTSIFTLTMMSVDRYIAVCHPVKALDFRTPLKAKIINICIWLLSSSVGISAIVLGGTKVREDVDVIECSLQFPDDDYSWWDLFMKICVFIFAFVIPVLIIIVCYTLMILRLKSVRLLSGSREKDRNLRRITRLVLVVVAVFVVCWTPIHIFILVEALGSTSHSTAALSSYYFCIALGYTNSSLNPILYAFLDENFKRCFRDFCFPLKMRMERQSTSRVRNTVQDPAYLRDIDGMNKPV

In the case of `CC(C)C[C@@H](NC(=O)[C@@H](Cc1ccccc1)NC(=O)[C@H](N)Cc1ccccc1)C(=O)N[C@H](CCCNC(=N)N)C(=O)N1CCCN(C(=N)N)CC1` [Compound (24), D-Phe-D-Phe-D-Leu-D-Arg-[4-amidinohomopiperazine amide]] (H-[dF][dF][dL][dR]-{Homopiperazine(4-amidino)}), the EC50 [1] is reported as 0.036 nM, the Emax [1] is reported as 97% and the EC50 [2] is reported as 0.09 nM. The Emax [2] was 93%.
In the case of `CC(C)C[C@@H](NC(=O)[C@@H](Cc1ccccc1)NC(=O)[C@H](N)Cc1ccccc1)C(=O)N[C@H](CCCN)C(=O)NCCCC[C@H](NC(=O)[C@@H](CCCN)NC(=O)[C@@H](CC(C)C)NC(=O)[C@@H](Cc1ccccc1)NC(=O)[C@H](N)Cc1ccccc1)C(N)=O` [Compound (80)] (H-[dF][dF][dL][dOrn]K([dOrn-dL-dF-dF])-NH2), the EC50 [1] is reported as 1.3 nM, the Emax [1] is reported as 91% and the EC50 [2] is reported as 0.25 nM.
With `CC(C)C[C@@H](NC(=O)[C@@H](Cc1ccccc1)NC(=O)[C@H](N)Cc1ccccc1)C(=O)N[C@H](CCCN)C(=O)NCCCC[C@H](NC(=O)[C@H](N)CCCN)C(=O)N1CCNCC1` [Compound (81)] the EC50 [1] was 0.05 nM, the Emax [1] was 96% and the EC50 [2] was 0.28 nM. For the same compound, the Emax [2] was 96%.
`CC(C)C[C@@H](NC(=O)[C@@H](Cc1ccccc1)NC(=O)[C@H](N)Cc1ccccc1)C(=O)N[C@H](CNC(=N)N)C(=O)N1CCC(N2CCC[C@H]2C(=O)O)CC1` [Compound (14), D-Phe-D-Phe-D-Leu-D-Dap(amidino)-[N-(4-piperidinyl)-L-proline]-OH] (H-[dF][dF][dL][dAgp]-{Piperidinyl(4-(1-Pro-OH))}) was tested, and the EC50 [1] was 0.349 nM, the Emax [1] was 86% and the EC50 [2] was 0.21 nM. For the same compound, the Emax [2] was 81%.
For `CCN1CCCN(C(=O)[C@@H](CCCN)NC(=O)[C@@H](CC(C)C)NC(=O)[C@@H](Cc2ccccc2)NC(=O)[C@H](N)Cc2ccccc2)CC1` [Compound (55), D-Phe-D-Phe-D-Leu-D-Orn-[4-ethylhomopiperazine amide]], the EC50 [1] was 0.049 nM, the Emax [1] was 99% and the EC50 [2] was 0.14 nM. The Emax [2] was 93%.
With `CC(C)C[C@@H](NC(=O)[C@@H](Cc1ccccc1)NC(=O)[C@H](N)Cc1ccccc1)C(=O)N[C@H](CCCNC(C)C)C(=O)N1CCC(N)(C(=O)O)CC1` [Compound (58), D-Phe-D-Phe-D-Leu-(δ-iPr)D-Orn-[ω(4-aminopiperidine-4-carboxylic acid)]-OH] the EC50 [1] was 0.193 nM, the Emax [1] was 92% and the EC50 [2] was 0.12 nM.
`CC(C)C[C@@H](NC(=O)[C@@H](Cc1ccccc1)NC(=O)[C@H](N)Cc1ccccc1)C(=O)N[C@H](CCCCN)C(=O)N1CCN(c2nccs2)CC1` [Compound (66), D-Phe-D-Phe-D-Leu-D-Lys-[2-(piperazin-1-yl)thiazole amide]] gave an EC50 [1] of 0.084 nM, an Emax [1] of 85% and an EC50 [2] of 0.031 nM. The Emax [2] was 92%.
Work on `CC(C)C[C@@H](NC(=O)[C@@H](Cc1ccccc1)NC(=O)[C@H](N)Cc1ccccc1)C(=O)N[C@H](CCCCN)C(=O)N1CCC(n2c(=O)[nH]c3ccccc32)CC1` [Compound (36), D-Phe-D-Phe-D-Leu-D-Lys-[1-(piperidin-4-yl)-1H-benzo[d]imidazol-2(3H)-one amide]] yielded an Emax [1] of 87% and an Emax [2] of 100%.
For `CC(C)C[C@@H](NC(=O)[C@@H](Cc1ccccc1)NC(=O)[C@H](N)Cc1ccccc1)C(=O)N[C@H](CCCN)C(=O)NCCCC[C@H](NC(=O)[C@H](N)CCCN)C(=O)O` [Compound (79)], the EC50 [1] was 0.08 nM, the Emax [1] was 101% and the EC50 [2] was 0.13 nM.
`CC(C)C[C@@H](NC(=O)[C@@H](Cc1ccccc1)NC(=O)[C@H](N)Cc1ccccc1)C(=O)N[C@H](CCCNC(=N)N)C(=O)N1CCCNCC1` [Compound (7), D-Phe-D-Phe-D-Leu-D-Arg-[homopiperazine amide]] (H-[dF][dF][dL][dR]-Homopiperazinyl) was tested, and the EC50 [1] was 0.012 nM, the Emax [1] was 98% and the EC50 [2] was 0.11 nM. For the same compound, the Emax [2] was 100%.
`CC(C)C[C@@H](NC(=O)[C@@H](Cc1ccccc1)NC(=O)[C@H](N)Cc1ccccc1)C(=O)N[C@H](CCCN)C(=O)NCCN1CCN(CC(=O)O)CC1` [Compound (38), D-Phe-D-Phe-D-Leu-D-Orn-[4-(2-aminoethyl)-1-carboxymethyl-piperazine]-OH] gave an EC50 [1] of 0.403 nM, an Emax [1] of 98% and an Emax [2] of 102%.
Work on `CC(C)C[C@@H](NC(=O)[C@@H](Cc1ccccc1)NC(=O)[C@H](N)Cc1ccccc1)C(=O)N[C@H](CCNC(=N)N)C(=O)N1CCCN(C(=N)N)CC1` [Compound (23), D-Phe-D-Phe-D-Leu-D-Nar-[4-amidinohomopiperazine amide]] (H-[dF][dF][dL][dAgb]-{Homopiperazine(4-amidino)}) yielded an EC50 [1] of 0.091 nM, an Emax [1] of 104% and an EC50 [2] of 0.17 nM. The Emax [2] was 84%.
For `CNCCC[C@@H](NC(=O)[C@@H](CC(C)C)NC(=O)[C@@H](Cc1ccccc1)NC(=O)[C@H](N)Cc1ccccc1)C(=O)N1CCCN(C(=N)N)CC1` [Compound (57), D-Phe-D-Phe-D-Leu-(δ-Me)D-Orn-[4-amidinohomopiperazine amide]], the EC50 [1] was 0.078 nM, the Emax [1] was 97% and the EC50 [2] was 0.09 nM. It also gave an Emax [2] of 101%.
Work on `CC(C)C[C@@H](NC(=O)[C@@H](Cc1ccccc1)NC(=O)[C@H](N)Cc1ccccc1)C(=O)N[C@H](CCCCN)C(=O)NCC1OCCO1` [Compound (62)] yielded an EC50 [1] of 0.147 nM, an Emax [1] of 85% and an EC50 [2] of 0.021 nM. The Emax [2] was 98%.
`CC(C)C[C@@H](NC(=O)[C@@H](Cc1ccccc1)NC(=O)[C@H](N)Cc1ccccc1)C(=O)N[C@H](CCCCN)C(=O)N1CCN(c2cnccn2)CC1` [Compound (64), D-Phe-D-Phe-D-Leu-D-Lys-[2-(piperazin-1-yl)pyrazine amide]] gave an Emax [1] of 85%, an EC50 [2] of 0.0293 nM and an Emax [2] of 100%.
For `CC(C)C[C@@H](NC(=O)[C@@H](Cc1ccccc1)NC(=O)[C@H](N)Cc1ccccc1)C(=O)N[C@H](CCCNC(C)C)C(=O)N1CCCN(C(=N)N)CC1` [Compound (59), D-Phe-D-Phe-D-Leu-(δ-iPr)D-Orn-[4-amidinohomopiperazine amide]], the EC50 [1] was 0.081 nM, the Emax [1] was 97% and the EC50 [2] was 0.08 nM. For the same compound, the Emax [2] was 100%.
For `CC(C)C[C@@H](NC(=O)[C@@H](Cc1ccccc1)NC(=O)[C@H](N)Cc1ccccc1)C(=O)N[C@H](CCCCN)C(=O)N1CCN(c2ncccn2)CC1` [Compound (63), D-Phe-D-Phe-D-Leu-D-Lys-[2-(piperazin-1-yl)pyrimidine amide]], the EC50 [1] was 0.12 nM, the Emax [1] was 78% and the EC50 [2] was 0.0073 nM. The Emax [2] was 98%.
`CC(C)C[C@@H](NC(=O)[C@@H](Cc1ccccc1)NC(=O)[C@H](N)Cc1ccccc1)C(=O)N[C@H](CCCCN)C(=O)NCc1ccc(C(F)(F)F)nc1` [Compound (72), D-Phe-D-Phe-D-Leu-D-Lys-[6-trifluoromethyl-3-aminomethylpyridine amide]] gave an EC50 [1] of 0.485 nM, an Emax [1] of 85% and an EC50 [2] of 0.0667 nM. The Emax [2] was 95%.
With `CC(C)C[C@@H](NC(=O)[C@@H](Cc1ccccc1)NC(=O)[C@H](N)Cc1ccccc1)C(=O)N[C@H](CCCCNC(=N)N)C(=O)N1CCCN(C(=N)N)CC1` [Compound (16), D-Phe-D-Phe-D-Leu-D-Har-[4-amidinohomopiperazine amide]] (H-[dF][dF][dL][d(hArg)]-{Homopiperazine(4-amidino)}) the EC50 [1] was 0.021 nM, the Emax [1] was 105% and the EC50 [2] was 0.11 nM. It also gave an Emax [2] of 96%.
`CC(C)C[C@@H](NC(=O)[C@@H](Cc1ccccc1)NC(=O)[C@H](N)Cc1ccccc1)C(=O)N[C@H](CCCN)C(=O)N1CCC(N)(C(=O)O)CC1` [Compound (43), D-Phe-D-Phe-D-Leu-D-Orn-[ω(4-aminopiperidine-4-carboxylic acid)]-OH] showed an EC50 [1] of 0.041 nM, an Emax [1] of 100% and an EC50 [2] of 0.14 nM. It also gave an Emax [2] of 107%.
For `CC(C)C[C@@H](N)C(=O)N[C@H](CCCN)C(=O)N[C@@H](CCCCNC(=O)[C@@H](CCCN)NC(=O)[C@@H](CC(C)C)NC(=O)[C@@H](Cc1ccccc1)NC(=O)[C@H](N)Cc1ccccc1)C(=O)O` [Compound (76), D-Phe-D-Phe-D-Leu-D-Orn-[eLys(D-Orn-D-Leu-H)]-OH], the EC50 [1] was 1.07 nM, the Emax [1] was 96% and the EC50 [2] was 0.26 nM. For the same compound, the Emax [2] was 83%.
Compound `CCCC[C@@H](NC(=O)[C@@H](Cc1ccccc1)NC(=O)[C@H](N)Cc1ccccc1)C(=O)N[C@H](CNC(=N)N)C(=O)N1CCCNCC1` [Compound (21), D-Phe-D-Phe-D-Nle-(β-amidino)D-Dap-[homopiperazine amide]] (H-[dF][dF][dNle][dAgp]-Homopiperazinyl) has an EC50 [1] of 0.732 nM, an Emax [1] of 103% and an EC50 [2] of 1.06 nM. It also gave an Emax [2] of 99%.
`CC(C)C[C@@H](NC(=O)[C@@H](Cc1ccccc1)NC(=O)[C@H](N)Cc1ccccc1)C(=O)N[C@H](CCCCNC(C)C)C(=O)N1CCCN(C(=N)N)CC1` [Compound (17), D-Phe-D-Phe-D-Leu-(ε-iPr)D-Lys-[4-Amidinohomopiperazine amide]] was tested, and the EC50 [1] was 0.039 nM, the Emax [1] was 103% and the EC50 [2] was 0.1 nM. The Emax [2] was 102%.
In the case of `CC(C)C[C@@H](NC(=O)[C@@H](Cc1ccccc1)NC(=O)[C@H](N)Cc1ccccc1)C(=O)N[C@H](CCN)C(=O)N1CCC(N2CCC[C@H]2C(=O)O)CC1` [Compound (12), D-Phe-D-Phe-D-Leu-D-Dbu-[N-(4-piperidinyl)-L-proline]-OH] (H-[dF][dF][dL][dDab]-{Piperidinyl(4-(1-Pro-OH))}), the EC50 [1] is reported as 0.055 nM, the Emax [1] is reported as 89% and the EC50 [2] is reported as 0.17 nM.
`CC(C)C[C@@H](NC(=O)[C@@H](Cc1ccccc1)NC(=O)[C@H](N)Cc1ccccc1)C(=O)N[C@H](CCCN)C(=O)N1CCC(C(=O)O)CC1` [Compound (46), D-Phe-D-Phe-D-Leu-D-Orn-[Isonipecotic acid]-OH] (H-[dF][dF][dL][dOrn][Inp]-OH) showed an EC50 [1] of 0.088 nM, an Emax [1] of 92% and an EC50 [2] of 0.28 nM. The Emax [2] was 128%.
`CC(C)C[C@@H](NC(=O)[C@@H](Cc1ccccc1)NC(=O)[C@H](N)Cc1ccccc1)C(=O)N[C@H](CCCCN)C(=O)N1CCS(=O)(=O)CC1` [Compound (71), D-Phe-D-Phe-D-Leu-D-Lys-[thiolmorpholine-1,1-dioxide amide]] showed an EC50 [1] of 0.192 nM, an Emax [1] of 89% and an EC50 [2] of 0.0306 nM. For the same compound, the Emax [2] was 103%.
